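The compound was tested at five concentrations on cells cultured in 96-well plates, with a 48-hour exposure period. TGI marks complete inhibition of growth.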
Experiments:
Assay in all cases: NCI tumour cell line growth inhibition, 48 h
U251 CNS = tested on: U251 CNS
MDA-N = tested on: MDA-N
LOX IMVI melanoma = tested on: LOX IMVI melanoma
NCI-H460 lung = tested on: NCI-H460 lung
OVCAR-5 ovarian = tested on: OVCAR-5 ovarian
HOP-62 NSCLC = tested on: HOP-62 NSCLC
UACC-62 melanoma = tested on: UACC-62 melanoma
HCC-2998 colon = tested on: HCC-2998 colon
SF-268 CNS = tested on: SF-268 CNS
RPMI-8226 leukemia = tested on: RPMI-8226 leukemia
CAKI-1 renal = tested on: CAKI-1 renal
COLO 205 colon = tested on: COLO 205 colon
HCT-15 colon = tested on: HCT-15 colon
SK-MEL-2 melanoma = tested on: SK-MEL-2 melanoma
RXF 393 renal = tested on: RXF 393 renal
IGROV1 ovarian = tested on: IGROV1 ovarian
SNB-19 CNS = tested on: SNB-19 CNS
UACC-257 melanoma = tested on: UACC-257 melanoma

Compound	TGI (U251 CNS)	TGI (MDA-N)	TGI (LOX IMVI melanoma)	TGI (NCI-H460 lung)	TGI (OVCAR-5 ovarian)	TGI (HOP-62 NSCLC)	TGI (UACC-62 melanoma)	TGI (HCC-2998 colon)	TGI (SF-268 CNS)	TGI (RPMI-8226 leukemia)	TGI (CAKI-1 renal)	TGI (COLO 205 colon)	TGI (HCT-15 colon)	TGI (SK-MEL-2 melanoma)	TGI (RXF 393 renal)	TGI (IGROV1 ovarian)	TGI (SNB-19 CNS)	TGI (UACC-257 melanoma)
NCCSS(=O)(=O)CCN	> 100 µM	> 100 µM	> 100 µM	> 100 µM	> 100 µM	> 100 µM	> 100 µM	> 100 µM	> 100 µM	> 100 µM	> 100 µM	> 100 µM	> 100 µM	> 100 µM	> 100 µM	> 100 µM	> 100 µM	–
Oc1ccc(-c2cc(-c3cc(-c4ccc(O)cc4)no3)on2)cc1	> 100 µM	> 100 µM	> 100 µM	> 100 µM	> 100 µM	> 100 µM	> 100 µM	> 100 µM	> 100 µM	> 100 µM	> 100 µM	> 100 µM	> 100 µM	> 100 µM	> 100 µM	> 100 µM	> 100 µM	> 31.1 µM
C=CCN1C(=O)/C(=C/c2cccs2)N=C1SC/C=C/C	> 100 µM	> 100 µM	> 100 µM	> 100 µM	> 100 µM	> 100 µM	> 100 µM	> 100 µM	> 100 µM	40.6 µM	> 100 µM	88.9 µM	> 100 µM	65.8 µM	85.2 µM	> 100 µM	> 100 µM	> 100 µM
O=c1[nH]cc(-c2c[nH]c3ccccc23)nc1-c1c[nH]c2ccccc12	70.8 µM	9.44 µM	27.5 µM	43.4 µM	27.6 µM	27.3 µM	23.7 µM	21.6 µM	27.9 µM	43.8 µM	24.6 µM	23.2 µM	23.7 µM	34.2 µM	10.3 µM	14.6 µM	34.6 µM	26.9 µM
O=C(CCCN1CCC2(CC1)CC(c1ccccc1)OC2=O)c1ccc(F)cc1 (configuration not stated)	> 100 µM	> 100 µM	45.1 µM	> 100 µM	> 100 µM	73.7 µM	61.9 µM	73.2 µM	> 100 µM	51.3 µM	82.3 µM	35.4 µM	> 100 µM	> 100 µM	> 100 µM	> 100 µM	> 100 µM	52.1 µM
CN(C)c1ccc(C(Cc2ccccc2)C2NC(=S)NC2=O)cc1 (configuration not stated)	> 100 µM	> 100 µM	> 100 µM	> 100 µM	> 100 µM	> 100 µM	> 100 µM	> 100 µM	> 100 µM	> 100 µM	> 100 µM	> 100 µM	> 100 µM	> 100 µM	> 100 µM	> 100 µM	> 100 µM	> 100 µM
CCN1C(=O)c2cc(OC)c(OC)cc2C(=O)C12OC(=O)c1cc3c(cc12)OCO3 (configuration not stated)	> 100 µM	> 100 µM	> 100 µM	> 100 µM	> 100 µM	> 100 µM	> 100 µM	> 100 µM	> 100 µM	> 100 µM	> 100 µM	> 100 µM	> 100 µM	49.9 µM	72.9 µM	> 100 µM	> 100 µM	> 100 µM
COC1/C=C/C(C)C(C(C)C(OC)C(C)CCC(=O)C(C)C(C/C=C/N(C)C=O)OC)OC(=O)C=CC2OC2(C)CC(OC)C(OC)C2=CC(=O)O[C@@H](C(C)C(OC)CC(OC)/C=C/C(C)C(O)C1)[C@H]2O (some centres not stated)	0.0416 µM	0.103 µM	0.00617 µM	> 0.351 µM	0.0464 µM	0.0227 µM	0.0514 µM	0.0584 µM	0.0186 µM	> 1.24 µM	0.0203 µM	–	–	0.0446 µM	0.0473 µM	0.00369 µM	0.0316 µM	0.0492 µM
C=C(Br)CNC(=O)Nc1ccc(Cl)c(Cl)c1	66 µM	> 100 µM	43.6 µM	> 100 µM	92.4 µM	48.1 µM	49 µM	44.7 µM	91.9 µM	50.7 µM	54.2 µM	30.6 µM	> 100 µM	32.8 µM	40 µM	36.6 µM	73.5 µM	–
O=C1C=CC2(C=C1)O[C@H](Cc1ccccc1)[C@@H](Cc1ccccc1)O2	2.86 µM	0.66 µM	0.824 µM	30.8 µM	1.34 µM	3.63 µM	4.05 µM	11.1 µM	2.48 µM	0.499 µM	2.27 µM	2.99 µM	0.866 µM	3.33 µM	0.974 µM	0.583 µM	6.47 µM	4.51 µM
CC1(/C=C/CCSc2ccccc2)CC(=O)C2CC1C2(C)C (configuration not stated)	> 83.7 µM	> 100 µM	43.9 µM	71.6 µM	> 100 µM	> 100 µM	> 60 µM	> 73.5 µM	> 100 µM	18.8 µM	> 82 µM	70.6 µM	> 96 µM	> 55.9 µM	> 100 µM	53.5 µM	> 100 µM	> 73.6 µM
O=C(O)C12C3CCC(CC3)C1(C(=O)O)C1CCC2C1 (configuration not stated)	> 100 µM	> 100 µM	> 100 µM	> 100 µM	> 100 µM	> 100 µM	> 100 µM	> 100 µM	> 100 µM	> 100 µM	> 100 µM	> 100 µM	> 100 µM	> 100 µM	> 100 µM	> 100 µM	> 100 µM	> 100 µM

— PubChem BioAssay (NCI)
